Patent publication US20200124597A1, “INDICATOR RELEASE SYSTEM FOR THE DETECTION OF AN ANALYTE IN A FOODSTUFF, TEST STRIP THEREFOR, AND ANALYSIS METHOD” (Bundesrepublik Deutschland, vertreten durch die …, priority 2017, published 2020)

Tests used:
[1] = system: rabbit antisera against the hapten sulfathiazole (STZ), capping antibody; assay: Biphasic extraction assay: fluorescence of CHCl3 phase after dye extraction from M7-A1@B suspensions in raw milk; format: binding
Description: (§1) Capping of the material was performed following the same conditions as for the preparation of M4-A1 @B, but in this case 1 mg of the mesoporous silica was suspended in 450 μL of PBS containing 360 ppm of BODIPY-PEG and 2 μL of the serum for 30 min. Thereafter, 50 μL of BSA solution (5%) were added to the suspensions and stirred for another 1.5 h. […] Before centrifuging the suspension in the last washing cycle, it was divided into 10 fractions, which were dried separately for 1 h in the vacuum at room temperature and stored in the fridge, yielding 10 fractions of ca. 100 μg of M7-A1@B.
Next, the effect of the concentration of STZ and SPY was studied. For this purpose, we repeated the procedure but added different concentrations of the corresponding sulfonamide into each fraction and took an aliquot from the chloroform phase after 10 min of reaction (FIG. 10). In this case, milk stored in the fridge for 5 and 7 d was used. It is obvious that a highly sensitive response could be found in both cases, with an LOQ of 0.5±0.1 ppb and an IC50 of 0.8±0.1 ppb for STZ. For SPY, both the fluorescence increase and the sensitivity are lower (LOQ: 4.6±2.2 ppb, IC50: 16.2±6.9 ppb).
The red points were classified as outliers and not considered in the fit (N=2, only one repetition shown).
The sensitivity could further be improved by increasing the number of washing cycles of the material before use, although the fluorescence enhancement is lower due to partial dye removal during continued washing. […] Furthermore, the amount of dye released in the working range of the assay at lower STZ concentrations (100 ppt) is at least 100 times higher, preferably 200-times higher than that of antibody displaced, decreasing to 80-times at concentrations higher than 50 ppb, which is a remarkable sign of signal amplification especially in the desired low-concentration range.

[2] = Dye partitioning from water/milk to CHCl3; format: physicochemical; details: phase transfer from water/milk to CHCl3
Description: as §1

[3] = system: rabbit antisera against the hapten sulfathiazole (STZ), capping antibody; assay: Fluorescence of supernatants of M4-A1@B (SRB-loaded, antibody-gated MCM-41) suspensions after adding STZ prepared in milk; format: binding; details: M4-A1@B suspension in PBS, STZ solutions prepared in milk, λem=585 nm, λexc=560 nm, logistic fit
Description: The pores of the particles were filled with the dye sulforhodamine B (SRB). With the aim of loading the maximum amount of dye into the MCM-41 scaffold, a solution of the dye SRB sodium salt (2 mmol L^−1) was prepared in acetonitrile. Then, 2 portions of 12.0 mL were added to 300 mg of each MCM-41 nano- or microparticle material, yielding a suspension with a concentration of 0.8 mmol dye (g solid)^−1. The suspension was stirred for 24 h at room temperature. Two fractions of each type of material (2×40 mL) were centrifuged (5 min at 6000 rpm) and concentrated in a final volume of 1.5 mL. Thereafter, volumes of 0.14 mL and 0.7 mL of hapten solution (0.02 and 0.01 mmol) in DMF were added, arriving at final suspensions of 0.2 and 0.1 mmol (g solid)^−1. The resulting suspensions were stirred for 5.5 h at room temperature. Finally, the suspensions were centrifuged (5 min at 6000 rpm), and the solids obtained were washed with acetonitrile (0.75 mL), isolated by centrifugation, and dried at 35° C. in vacuum during 12 h. […]
The fluorescence enhancement caused by STZ at different concentrations was assessed in milk as well. […] Then, 6 μL of STZ solutions of different concentrations were added to the other fractions, the vials shaken by hand for 20 s and centrifuged before measuring the fluorescence of the supernatants in a fluorometer (λem=585 nm, λexc=560 nm).

[4] = system: rabbit antisera against the hapten sulfathiazole (STZ), capping antibody; assay: Lateral flow test strips spotted with M4-A1@B, developed in raw milk spiked with STZ, fluorescence reader; format: binding; details: M4-A1@B on nitrocellulose strips, ratio FB/(FA+FB) with lateral flow reader, data considerably noisy
Text: As explained above, after development the strips show two different zones, a first one (zone A) at which the sensing material (indicator reservoir) has been deposited, and a second one (zone B) in which the released dye is collected that could travel with the solvent front (see FIGS. 2, 7).
In case of absence of a sulfonamide, the second zone (zone B in FIG. 7) should show minimum signal. In case of presence, the fluorescence in that zone should correlate with analyte concentration. The amount of dye released can be quantified with a fluorescence reader with appropriate excitation and emission wavelengths or by taking pictures under proper light excitation conditions. Strips were prepared using a Hi-Flow nitrocellulose paper from Millipore®. […]
Afterwards, the strips were dipped into 150 μL of raw milk spiked with various amounts of STZ, developed and let dried at room temperature. […] Afterwards, the fluorescence histograms were registered with a lateral flow reader and a home-made housing equipped with an LED (λexc 505 nm) as excitation source and filters (532 nm cut-off and 550 nm long-pass) that can be fitted to a conventional digital camera. […] FIG. 6 c) (luminance of dye released in second zone and FIG. 6 d) (ratio of luminance) allows to compare the reader results with those obtained by extracting the luminance from images taken with a camera. […]

[5] = system: rabbit antisera against the hapten sulfathiazole (STZ), capping antibody; assay: Fluorescence of supernatants of M7-A1@B (BODIPY-PEG-loaded, antibody-gated) suspensions in milk; format: binding; details: M7-A1@B suspension in milk, 10 min, 535 nm (λexc=515 nm), logistic fit
Description: as §1
In an attempt to avoid the extraction process, and with the aim to compare the effect of different dyes to M4-A1 @B, respectively, first of all the material M7-A1@B was tested in absence and in presence of several amounts of STZ following similar a procedure as explained previously. For that purpose, two independent experiments were performed, using in one case milk provided from FOSS stored in the fridge (6 d) and fresh milk from Poland (1 d in the fridge). […] Then, 20 μL of STZ solutions of different concentrations were added to the rest of the fractions (80 μL), the vials were shaken in the thermomixer at 800 rpm for 10 min, centrifuged and the fluorescence of the supernatants measured at 535 nm with λexc=515 nm (FIG. 9).

[6] = M7-A1@B in raw milk, CHCl3 phase, 10 min reaction, 538 nm (λexc=515 nm)
[7] = M7-A1@B, increased number of washing cycles of the material before use

## Nc1ccc(S(=O)(=O)Nc2ccccn2)cc1 [SPY, sulfapyridine]
[1]; [6]
  IC50: 16.2±6.9 ppb
  LOQ: 4.6±2.2 ppb
[1]; [7]
  IC50: 4.4±1.7 ppb
  LOQ: 0.78±0.38 ppb

## CCN(CC)c1ccc2c(-c3ccc(S(=O)(=O)O)cc3S(=O)(=O)[O-])c3ccc(=[N+](CC)CC)cc-3oc2c1 [sulforhodamine B]
[2]
  dye partitioning coefficient: too low to undergo efficient phase transfer

## Nc1ccc(S(=O)(=O)Nc2nccs2)cc1 [STZ, sulfathiazole]
[3]
  IC20, i.e. limit of quantification (LOQ): 87±8 ppb
  IC50: 172±12 ppb
[4]
  IC50: below 1 ppb
[5]
  IC50: 1.5±1.4 ppb
  limit of quantification (LOQ): 65±18 ppt
[1]; [6]
  IC50: 0.8±0.1 ppb
  LOQ: 0.5±0.1 ppb
[1]; [7]
  IC50: 0.28±0.15 ppb
  LOQ: 0.02±0.01 ppb
